Read-outs that look alike come from different tables or passages of the source.
Experiments:
BaF3/TPR-Met cell = assay: Test III: growth inhibition of engineered BaF3/TPR-Met cells (MTT); type: cell-based; settings: Mus musculus; for inhibition at 0.2 µM: read-out: Cell proliferation inhibition rate at 200 nM (%); for inhibition at 1 µM: read-out: Cell proliferation inhibition rate at 1 μM (%)
Description: Assays on the growth inhibition of the compounds against engineered BaF3/TPR-Met cell (engineered cell line having TPR-Met fusion protein stably expressed in cytoplasm, persistently activated, Met dependent sensitive cell line; BaF3 cell was purchased from DSMZ, German) were detected using microculture tetrozolium (MTT) staining. A certain amount of BaF3/TPR-Met cells at log phase were inoculated into 96-well culture plate at 90 µL per well, incubated overnight and then 10 μL compound at various concentrations or vehicle control (normal saline) was added, each concentration was tested in triplicate. After incubation with compound for 72 hours, the incubation was terminated, MTT solution (5 mg/mL) was added at 20 μL per well, incubated at 37° C. for 4 hours, then 100 μL triplet solution (10% SDS−5% isobutanol−0.01M HCl) was added, incubated overnight at 37° C., OD value was measured at 570 nm. […] Experiments were conducted in duplicates.

[1] = biological target: T1, c-Met kinase domain recombinant protein (Homo sapiens, UniProt P08581); assay: biochemical; settings: for inhibition at 0.1 µM: read-out: Average inhibition rate at 0.1 μM (%); for inhibition at 1 µM: read-out: Average inhibition rate at 1 μM (%); for inhibition at 10 µM: read-out: Average inhibition rate at 10 μM (%)
T1 construct: 50 μL diluted solution of c-Met kinase domain recombinant protein in reaction buffer was added to initiate the reaction
T1 sequence (P08581 1078-1345 limits assumed): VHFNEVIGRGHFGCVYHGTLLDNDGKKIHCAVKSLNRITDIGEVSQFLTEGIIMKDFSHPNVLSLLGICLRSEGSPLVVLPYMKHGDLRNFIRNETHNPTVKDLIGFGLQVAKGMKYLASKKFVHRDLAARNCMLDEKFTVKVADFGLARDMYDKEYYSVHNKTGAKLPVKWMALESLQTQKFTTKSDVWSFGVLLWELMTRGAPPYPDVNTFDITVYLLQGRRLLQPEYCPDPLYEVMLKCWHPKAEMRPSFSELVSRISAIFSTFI
Procedure, shortened: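 IC50 came from a four-parameter fit of inhibition rates measured by anti-phosphotyrosine (PY99/HRP) ELISA at 490 nm. The reaction ran 1 hour at 37° C with 5 μM ATP, c-Met kinase domain protein and Poly(Glu,Tyr)4:1-coated wells, in HEPES pH 7.4 buffer containing MgCl2, MnCl2, Na3VO4 and DTT.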

[2] = biological target: T1, c-Met kinase domain recombinant protein; assay: biochemical; settings: read-out: Inhibition rate at 10 μM (%)
Procedure, shortened: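 Recombinant c-Met kinase domain phosphorylated immobilised Poly(Glu,Tyr)4:1 for 1 h at 37 °C in 50 mM HEPES pH 7.4, 50 mM MgCl2, 0.5 mM MnCl2, 0.2 mM Na3VO4, 1 mM DTT with ATP. Product measured by anti-phosphotyrosine PY99 ELISA (HRP, 490 nm), giving percent inhibition; ATP-free wells served as control.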

EBC-1 cell = assay: Test III: growth inhibition of non-small cell carcinoma EBC-1 cell (SRB); type: cell-based; settings: Homo sapiens, EBC-1, 72 h; for inhibition at 0.2 µM: read-out: Cell proliferation inhibition rate at 200 nM (%); for inhibition at 1 µM: read-out: Cell proliferation inhibition rate at 1 μM (%)
Description: Assays on the growth inhibition of the compounds against gastric tumor cell MKN45, non-small cell carcinoma EBC-1 cell (both are MET persistent activated cell lines due to MET gene amplification, and are Met dependent tumor cell lines, MKN45 cell was purchased from JCRB, Japan, EBC-1 cell was purchased from ATCC, USA) were detected using sulforhodamine B (SRB) staining. […] After incubation with compound for 72 hours, the incubation was terminated, adherent cells were retained and medium was discarded, 10% (w/v) trichloroacetic acid (100 μL pre well) was added, the cells were fixed at 4° C. for 1 hour, then rinsed with distilled water for 5 times, after dried at room temperature, SRB solution (4 mg/mL, dissolved in 1% glacial acetic acid) was added at 100 μL per well, incubated and stained at room temperature for 15 minutes, then rinsed with 1% glacial acetic acid for 5 times to remove any unbound SRB, dried at room temperature, then 10 mM Tris solution was added at 100 μL per well, the optical density (OD) value at 515 nm was measured using VERSMax microplate reader.
Experiments were conducted in duplicates. IC50 value was calculated by fitting the data for a four parameter fit using inhibition curve, the results are shown below in Table 2.

Cn1cc(-c2cnc3cnn(S(=O)(=O)c4c(Cl)nc5sccn45)c3c2)cn1 [Compound 18]
inhibition at 0.2 µM (BaF3/TPR-Met cell; BaF3, 72 h): 1.8% | inhibition at 1 µM (BaF3/TPR-Met cell; BaF3, 72 h): 94.4% | IC50 [1]: 4.2 ± 0.6 nM | inhibition at 0.1 µM [1]: 52.2% | inhibition at 1 µM [1]: 60.5% | inhibition at 10 µM [1]: 64% | inhibition at 10 µM [2]: 64%

Cn1cc(-c2cnc3cnn(S(=O)(=O)c4cccc5nonc45)c3c2)cn1 [Compound 20, 1-(benzo[1,2,5]oxadiazole-4-sulfonyl)-6-[(1-methyl)-4-pyrazolyl]-1-H-pyrazolo[4,3-b]pyridine]
inhibition at 0.2 µM (BaF3/TPR-Met cell; BaF3, 72 h): 3.2% | inhibition at 1 µM (BaF3/TPR-Met cell; BaF3, 72 h): 2.9% | IC50 [1]: 316 ± 141 nM | inhibition at 0.1 µM [1]: 54.9% | inhibition at 1 µM [1]: 72.6% | inhibition at 10 µM [1]: 85.7% | inhibition at 10 µM [2]: 85.7%

Cn1cc(-c2cnc3cnn(S(=O)(=O)c4cnc5cccnn45)c3c2)cn1 [Example 21, 1-(imidazo[1,2-b]pyridazine-3-sulfonyl)-6-[(1-methyl)-4-pyrazolyl]-1-H-pyrazolo[4,3-b]pyridine]
inhibition at 1 µM (BaF3/TPR-Met cell; BaF3/TPR-Met, 1 μM, 72 hours): 42.7% | inhibition at 0.1 µM [1]: 59% | inhibition at 1 µM [1]: 59.7% | inhibition at 10 µM [1]: 77.9% | inhibition at 10 µM [2]: 77.9%

Cn1cc(-c2cnc3cnn(S(=O)(=O)c4cnc5ccc(Cl)cn45)c3c2)cn1 [Example 24, 1-[(6-chloro-imidazo[1,2-a]pyridine)-3-sulfonyl]-6-[(1-methyl)-4-pyrazolyl]-1-H-pyrazolo[4,3-b]pyridine]
inhibition at 0.2 µM (BaF3/TPR-Met cell; BaF3, 72 h): 65.9% | inhibition at 1 µM (BaF3/TPR-Met cell; BaF3, 72 h): 90.9% | IC50 [1]: 2.5 ± 1.2 nM | inhibition at 0.1 µM [1]: 62.9% | inhibition at 1 µM [1]: 67.8% | inhibition at 10 µM [1]: 70.5% | inhibition at 10 µM [2]: 70.5%

Cn1cc(-c2cnc3cnn(S(=O)(=O)c4cnc5ccc(Cl)nn45)c3c2)cn1 [Example 25, 1-[(6-chloro-imidazo[1,2-b]pyridazine)-3-sulfonyl]-6-[(1-methyl)-4-pyrazolyl]-1-H-pyrazolo[4,3-b]pyridine]
inhibition at 0.2 µM (BaF3/TPR-Met cell; BaF3, 72 h): 36.3% | inhibition at 1 µM (BaF3/TPR-Met cell; BaF3, 72 h): 88.4% | IC50 [1]: 21.3 ± 2.3 nM | inhibition at 0.1 µM [1]: 71.7% | inhibition at 1 µM [1]: 78% | inhibition at 10 µM [1]: 86.2% | inhibition at 10 µM [2]: 86.2%

O=S(=O)(c1cnc2ccccn12)n1ncc2ncc(-c3ccccc3)cc21 [Example 28, 1-(imidazo[1,2-a]pyridine-3-sulfonyl)-6-phenyl-1-H-pyrazolo[4,3-b]pyridine]
inhibition at 1 µM (BaF3/TPR-Met cell; BaF3, 72 h): 66.1% | IC50 [1]: 6.7 ± 0.5 nM | inhibition at 0.1 µM [1]: 64.6% | inhibition at 1 µM [1]: 70.3% | inhibition at 10 µM [1]: 70.6% | inhibition at 10 µM [2]: 70.6%

O=S(=O)(c1cnc2ccccn12)n1ncc2ncc(-c3ccsc3)cc21 [Example 29, 1-(imidazo[1,2-a]pyridine-3-sulfonyl)-6-(3-thienyl)-1-H-pyrazolo[4,3-b]pyridine]
inhibition at 1 µM (BaF3/TPR-Met cell; BaF3, 72 h): 92.6% | IC50 [1]: 4.6 ± 1 nM | inhibition at 0.1 µM [1]: 55.7% | inhibition at 1 µM [1]: 63.8% | inhibition at 10 µM [1]: 65.7% | inhibition at 10 µM [2]: 65.7%

CN1CCN(C(=O)c2ccc(-c3cnc4cnn(S(=O)(=O)c5cnc6ccccn56)c4c3)cc2)CC1 [Example 37, 1-(imidazo[1,2-a]pyridine-3-sulfonyl)-6-[4-(4-methylpiperazine-1-carbonyl)phenyl]-1-H-pyrazolo[4,3-b]pyridine]
inhibition at 0.2 µM (BaF3/TPR-Met cell; BaF3, 72 h): 59.5% | inhibition at 1 µM (BaF3/TPR-Met cell; BaF3, 72 h): 96.2% | IC50 [1]: 6.4 ± 2.2 nM | inhibition at 0.1 µM [1]: 60.1% | inhibition at 1 µM [1]: 63.8% | inhibition at 10 µM [1]: 73.3% | inhibition at 10 µM [2]: 73.3%

O=S(=O)(c1cnc2ccccn12)n1ncc2ncc(-c3ccc(N4CCOCC4)cc3)cc21 [Example 39, 1-(imidazo[1,2-a]pyridine-3-sulfonyl)-6-(4-morpholinylphenyl)-1-H-pyrazolo[4,3-b]pyridine]
inhibition at 0.2 µM (BaF3/TPR-Met cell; BaF3, 72 h): 74.4% | inhibition at 1 µM (BaF3/TPR-Met cell; BaF3, 72 h): 96.3% | IC50 [1]: 2.6 ± 0.3 nM | inhibition at 0.1 µM [1]: 58.2% | inhibition at 1 µM [1]: 65% | inhibition at 10 µM [1]: 68.8% | inhibition at 10 µM [2]: 68.8%

CC(C)(C)OC(=O)N1CCC(n2cc(-c3cnc4cnn(S(=O)(=O)c5cnc6ccccn56)c4c3)cn2)CC1 [Example 44, 1-(imidazo[1,2-a]pyridine-3-sulfonyl)-6-{{1-[(1-t-butoxycarbonyl)-4-piperidinyl]}-4-pyrazolyl}-1-H-pyrazolo[4,3-b]pyridine]
inhibition at 0.2 µM (BaF3/TPR-Met cell; BaF3, 72 h): 95% | inhibition at 1 µM (BaF3/TPR-Met cell; BaF3, 72 h): 95.8% | IC50 [1]: 6.9 ± 1.9 nM | inhibition at 0.1 µM [1]: 74.6% | inhibition at 1 µM [1]: 78.6% | inhibition at 10 µM [1]: 87.5% | inhibition at 10 µM [2]: 87.5%

CCN1CCC(n2cc(-c3cnc4cnn(S(=O)(=O)c5cnc6ccc(-c7cnn(C)c7)cn56)c4c3)cn2)CC1 [Example 138, 1-{(6-[(1-methyl)-4-pyrazolyl]-imidazo[1,2-a]pyridine)-3-sulfonyl}-6-{{1-[(1-ethyl)-4-piperidinyl]}-4-pyrazolyl}-1-H-pyrazolo[4,3-b]pyridine]
inhibition at 0.2 µM (EBC-1 cell): 90.9% | inhibition at 1 µM (EBC-1 cell): 92.9% | IC50 [1]: 0.6 ± 0.01 nM | inhibition at 0.1 µM [1]: 87.7% | inhibition at 1 µM [1]: 90.5%

Cn1cc(-c2ccc3ncc(S(=O)(=O)n4ncc5ncc(C6=CCNCC6)cc54)n3c2)cn1 [Example 139, 1-{(6-[(1-methyl)-4-pyrazolyl]-imidazo[1,2-a]pyridine)-3-sulfonyl}-6-[4-(1,2,3,6-tetrahydropyridinyl)]-1-H-pyrazolo[4,3-b]pyridine]
inhibition at 0.2 µM (EBC-1 cell): 90.7% | inhibition at 1 µM (EBC-1 cell): 91.6% | IC50 [1]: 1 ± 0.1 nM | inhibition at 0.1 µM [1]: 90.3% | inhibition at 1 µM [1]: 88.9%

Cn1cc(-c2ccc3ncc(S(=O)(=O)n4ncc5ncc(-c6cnn(C7CCNCC7)c6)cc54)n3c2)cn1 [Example 140, 1-{(6-[(1-methyl)-4-pyrazolyl]-imidazo[1,2-a]pyridine)-3-sulfonyl}-6-{[1-(4-piperidinyl)]-4-pyrazolyl}-1-H-pyrazolo[4,3-b]pyridine]
inhibition at 0.2 µM (EBC-1 cell): 91.4% | inhibition at 1 µM (EBC-1 cell): 92% | IC50 [1]: 0.5 ± 0.03 nM | inhibition at 0.1 µM [1]: 92.4% | inhibition at 1 µM [1]: 89.5%

Cn1cc(-c2ccc3ncc(S(=O)(=O)n4ncc5ncc(-c6cnn(C7CCN(C(=O)OC(C)(C)C)CC7)c6)cc54)n3c2)cn1 [Example 141, 1-{(6-[(1-methyl)-4-pyrazolyl]-imidazo[1,2-a]pyridine)-3-sulfonyl}-6-{{1-[(1-t-butoxycarbonyl)-4-piperidinyl]}-4-pyrazolyl}-1-H-pyrazolo[4,3-b]pyridine]
inhibition at 0.2 µM (EBC-1 cell): 92.6% | inhibition at 1 µM (EBC-1 cell): 92.7% | IC50 [1]: 0.3 ± 0.1 nM | inhibition at 0.1 µM [1]: 86.3% | inhibition at 1 µM [1]: 88.5%

Cn1cc(-c2ccc3ncc(S(=O)(=O)n4ncc5ncc(-c6ccc(CN7CCOCC7)cc6)cc54)n3c2)cn1 [Example 143, 1-{(6-[(1-methyl)-4-pyrazolyl]-imidazo[1,2-a]pyridine)-3-sulfonyl}-6-(4-morpholinomethylphenyl)-1-H-pyrazolo[4,3-b]pyridine]
inhibition at 0.2 µM (EBC-1 cell): 92.3% | inhibition at 1 µM (EBC-1 cell): 92.5% | IC50 [1]: 0.4 ± 0.1 nM | inhibition at 0.1 µM [1]: 90% | inhibition at 1 µM [1]: 92.1%

Cn1cc(-c2ccc3ncc(S(=O)(=O)n4ncc5ncc(-c6ccccc6)cc54)n3c2)cn1 [Example 144, 1-{(6-[(1-methyl)-4-pyrazolyl]-imidazo[1,2-a]pyridine)-3-sulfonyl}-6-phenyl-1-H-pyrazolo[4,3-b]pyridine]
inhibition at 0.2 µM (EBC-1 cell): 91.1% | inhibition at 1 µM (EBC-1 cell): 91.4% | IC50 [1]: 0.3 ± 0.01 nM | inhibition at 0.1 µM [1]: 92.1% | inhibition at 1 µM [1]: 93.1%
